From patent US20260097091A1, “ADMINISTRATION OF GLUTATHIONE TRISULFIDE TO AMELIORATE PERIPHERAL NEUROPATHY” (The General Hospital Corporation, priority 2022, published 2026)

Key:
sciatic nerve = assay: transmission electron microscopy of sciatic nerve (unmyelinated neurons, mitochondria); type: in vivo, mice (C57BL/6J); conditions: for median area of mitochondria in unmyelinated neuron: sciatic nerve at 4 weeks, control 0.036
Description: Paclitaxel (Sigma-Aldrich) was dissolved with ethanol and cremophor (1:1) and diluted with normal saline (1:4). Peripheral neuropathy was induced in mice by intraperitoneal (i.p.) administration of 4 mg/kg paclitaxel every other day for a total of 4 injections (cumulative dose of 16 mg/kg), according to a previously described protocol. A stable, crystallized form of GSSSG was produced and provided by Kyowa Hakko Bio CO., LTD. GSSSG was pulverized and mixed in 0.5% methylcellulose. To evaluate the therapeutic effects of GSSSG in a model of PIPN, mice were randomly divided into three groups of 6. Mice were treated with: 1) paclitaxel alone; 2) paclitaxel and GSSSG; 3) or vehicle alone (control). Mice in groups 1 and 2 received paclitaxel as described above, while mice in the control group received the same volume of vehicle. The first dose of GSSSG was given within 1 hour after the first PTX injection. Treatment was administered as oral gavage for 28 days with GSSSG at 50 mg/kg/day (group 2) or 0.5% methylcellulose (groups 1 and 3). The dose of GSSSG was determined based on pilot studies. To determine the effect of GSSSG on the development of PIPN, behavioral tests to assess allodynia and hyperalgesia were conducted on all mice on days-1 (baseline), 7, 14, 21, and 28 after paclitaxel administration. Behavioral tests were performed by an investigator who was blinded to the treatment groups, as described in the next section. To evaluate unmyelinated neurons and mitochondria, we examined neurons in sciatic nerve by a transmission electron microscope. Resin-embedded nerve blocks using the same method above were sectioned at 50 nm by an ultramicrotome. Sections were examined with an FEI Morgagni transmission electron microscope. Low (×2200) and high (×11000) magnification of images were captured with an AMT 2K charge-coupled device camera (Advanced Microscopy Techniques, Woburn, MA, USA). Unmyelinated neurons were quantified in 9 low magnified images per group (3 mice per group). The percentage of unmyelinated neurons was calculated by dividing unmyelinated neurons by the total number of neurons. The cross-sectional area of mitochondria (μm^2) in unmyelinated neurons was quantified in 18 to 20 high magnified images per group (3 mice per group). In total, 80 to 100 mitochondrion per group were evaluated. Quantification was conducted by a blinded examiner, and the images were evaluated by a pathologist (A S-R) blinded to the identity of samples.

mouse model of PIPN = assay: hot plate test of thermal hyperalgesia in mouse model of PIPN; type: in vivo, mice (C57BL/6J)
Source text: All animal protocols were approved by the Massachusetts General Hospital Institutional Animal Care and Use Committee. Animals were cared for in accordance with the guidelines established by the NIH and the International Association for the Study of Pain [16]. Male C57BL/6J mice (6-7 weeks old) were purchased from the Jackson Laboratory (Bar Harbor, ME, USA). The mice were housed in a 12-hour shift light-control environment from 7 am to […] with ad libitum access to food and water in our animal facility until the time of experiments.
Paclitaxel (Sigma-Aldrich) was dissolved with ethanol and cremophor (1:1) and diluted with normal saline (1:4). Peripheral neuropathy was induced in mice by intraperitoneal (i.p.) administration of 4 mg/kg paclitaxel every other day for a total of 4 injections (cumulative dose of 16 mg/kg), according to a previously described protocol. A stable, crystallized form of GSSSG was produced and provided by Kyowa Hakko Bio CO., LTD. […] The dose of GSSSG was determined based on pilot studies. […]
To assess hyperalgesia, the heat threshold was determined by the hot plate test. […] The test was repeated 2 times after 5 minutes interval by a blinded examiner, and the average time was calculated. The ratio of change from the baseline was calculated from the difference of the latency response time from the baseline divided by the baseline time. […]

[1] = paclitaxel alone, 4 weeks, vs control mice

Row | median area of mitochondria in unmyelinated neuron (sciatic nerve; paclitaxel alone) [μm^2] | thermal hyperalgesia (hot plate test) (mouse model of PIPN; paclitaxel 4 mg/kg i.p. every other day, 4 injections, 4 weeks, vs control) | Compound | mitochondrial swelling in axons of unmyelinated neurons (sciatic nerve; paclitaxel and GSSSG 50 mg/kg/day oral, 4 weeks) | ratio of unmyelinated neurons to total neurons in sciatic nerve (sciatic nerve; paclitaxel and GSSSG 50 mg/kg/day oral, 4 weeks, vs paclitaxel alone) | median area of mitochondria in unmyelinated neuron (sciatic nerve; paclitaxel with GSSSG 50 mg/kg/day oral) [μm^2] | threshold for thermal hyperalgesia (hot plate test) (mouse model of PIPN; GSSSG 50 mg/kg/day oral in paclitaxel-treated mice) | cross-sectional area of mitochondria in unmyelinated sciatic neurons (sciatic nerve; [1]) | ratio of unmyelinated neurons to total neurons in sciatic nerve (sciatic nerve; [1])
1 | – | – | N[C@@H](CCC(=O)N[C@@H](CSSSC[C@H](NC(=O)CC[C@H](N)C(=O)O)C(=O)NCC(=O)O)C(=O)NCC(=O)O)C(=O)O [GSSSG, glutathione trisulfide] | Prevented Mitochondrial Swelling | larger ratio of unmyelinated neurons | 0.041 | not altered | – | –
2 | 0.057 | induced thermal hyperalgesia | CC(=O)O[C@H]1C(=O)[C@@]2(C)[C@H]([C@H](OC(=O)c3ccccc3)[C@]3(O)C[C@H](OC(=O)[C@H](O)[C@@H](NC(=O)c4ccccc4)c4ccccc4)C(C)=C1C3(C)C)[C@]1(OC(C)=O)CO[C@@H]1C[C@@H]2O [paclitaxel, Paclitaxel, reference compound] | – | – | – | – | significantly larger than those in control mice | tended to decrease unmyelinated neurons compared to control mice
